# Results as given in PubChem BioAssay (NCI).
#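 Abbreviation: GI50, concentration required for 50% inhibition of growth. TGI is the concentration that stops growth completely.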
# Key:
# Test in all cases: inhibition of tumour cell growth, NCI panel, 384-well format
# HL-60(TB) leukemia = tested on: HL-60(TB) leukemia
# SNB-19 CNS = tested on: SNB-19 CNS
# MCF7 breast = tested on: MCF7 breast
# MDA-MB-468 breast = tested on: MDA-MB-468 breast
# HS 578T breast = tested on: HS 578T breast
# IGROV1 ovarian = tested on: IGROV1 ovarian
# MOLT-4 leukemia = tested on: MOLT-4 leukemia
# NCI-H522 lung = tested on: NCI-H522 lung
# NCI-H226 lung = tested on: NCI-H226 lung
# 786-0 renal = tested on: 786-0 renal
# SK-MEL-28 melanoma = tested on: SK-MEL-28 melanoma
# SF-539 CNS = tested on: SF-539 CNS
# SR leukemia = tested on: SR leukemia
# K-562 leukemia = tested on: K-562 leukemia
# MDA-MB-231 breast = tested on: MDA-MB-231 breast
# PC-3 prostate = tested on: PC-3 prostate
# CAKI-1 renal = tested on: CAKI-1 renal
# SF-295 CNS = tested on: SF-295 CNS
# MALME-3M melanoma = tested on: MALME-3M melanoma
# OVCAR-5 ovarian = tested on: OVCAR-5 ovarian
# COLO 205 colon = tested on: COLO 205 colon
# M14 melanoma = tested on: M14 melanoma
# NCI-H23 lung = tested on: NCI-H23 lung
# UO-31 renal = tested on: UO-31 renal
# RXF 393 renal = tested on: RXF 393 renal
# HCT-15 colon = tested on: HCT-15 colon
# MDA-MB-435 melanoma = tested on: MDA-MB-435 melanoma
# EKVX NSCLC = tested on: EKVX NSCLC
smiles,measurement,setting,value
CC(C)[C@@H](CS(=O)(=O)C(C)C)N1C(=O)[C@@](C)(CC(=O)O)C[C@H](c2cccc(Cl)c2)[C@H]1c1ccc(Cl)cc1,GI50,HL-60(TB) leukemia,17.3 µM
same,TGI,HL-60(TB) leukemia,31.2 µM
same,GI50,SNB-19 CNS,41.7 µM
same,TGI,SNB-19 CNS,> 100 µM
same,GI50,MCF7 breast,0.157 µM
same,TGI,MCF7 breast,0.573 µM
same,GI50,MDA-MB-468 breast,6.07 µM
same,TGI,MDA-MB-468 breast,22.2 µM
same,GI50,HS 578T breast,15.5 µM
same,TGI,HS 578T breast,32.8 µM
same,GI50,IGROV1 ovarian,12.1 µM
same,TGI,IGROV1 ovarian,> 100 µM
same,GI50,MOLT-4 leukemia,0.117 µM
same,TGI,MOLT-4 leukemia,0.246 µM
same,GI50,NCI-H522 lung,20.1 µM
same,TGI,NCI-H522 lung,49.3 µM
same,GI50,NCI-H226 lung,0.148 µM
same,TGI,NCI-H226 lung,0.324 µM
same,GI50,786-0 renal,36.5 µM
same,TGI,786-0 renal,> 100 µM
same,GI50,SK-MEL-28 melanoma,42.5 µM
same,TGI,SK-MEL-28 melanoma,> 100 µM
same,GI50,SF-539 CNS,16.5 µM
same,TGI,SF-539 CNS,35.2 µM
same,GI50,SR leukemia,0.053 µM
same,TGI,SR leukemia,0.187 µM
same,GI50,K-562 leukemia,20.6 µM
same,TGI,K-562 leukemia,> 100 µM
same,GI50,MDA-MB-231 breast,20.5 µM
same,TGI,MDA-MB-231 breast,> 100 µM
same,GI50,PC-3 prostate,14 µM
same,TGI,PC-3 prostate,62.7 µM
same,GI50,CAKI-1 renal,0.204 µM
same,TGI,CAKI-1 renal,13.1 µM
same,GI50,SF-295 CNS,14.7 µM
same,TGI,SF-295 CNS,38.7 µM
same,GI50,MALME-3M melanoma,0.45 µM
same,TGI,MALME-3M melanoma,19.8 µM
same,GI50,OVCAR-5 ovarian,38 µM
same,TGI,OVCAR-5 ovarian,> 100 µM
same,GI50,COLO 205 colon,52.4 µM
same,TGI,COLO 205 colon,> 100 µM
same,GI50,M14 melanoma,13.5 µM
same,TGI,M14 melanoma,37.5 µM
same,GI50,NCI-H23 lung,14.6 µM
same,TGI,NCI-H23 lung,36.9 µM
same,GI50,UO-31 renal,0.199 µM
same,TGI,UO-31 renal,0.445 µM
same,GI50,RXF 393 renal,13.1 µM
same,TGI,RXF 393 renal,36 µM
same,GI50,HCT-15 colon,26.4 µM
same,TGI,HCT-15 colon,78.3 µM
same,GI50,MDA-MB-435 melanoma,20.7 µM
same,TGI,MDA-MB-435 melanoma,46 µM
same,GI50,EKVX NSCLC,18.9 µM
